Read-outs that look alike come from different tables or passages of the source.
Assays:
Sertoli cells = conditions: cells isolated from seminiferous tubules ten days post-treatment, compared to control
Description: Tubular Cell Isolation—The procedure was performed under sterile conditions. Testes from both control and CP-treated mice were removed and tunica albuginea was gently removed by scalpel knife. Seminiferous tubules (STs) were immersed with PBS and thereafter transported through a syringe 2-3 times to complete the mechanical digestion. Thereafter the STs were enzymatically digested as described by AbuMadigem et al. [International Journal of Molecular Sciences 19, 3804 (2018)].
Gene expression—RNA was extracted from isolated testicular cells, from control or CP-treated immature mice, by GenElute Mannalian Total RNA Miniprep Kit [Sigma, St. Louis, USA). cDNA synthesis was performed according to the qScript cDNA Synthesis Kit (Quantabio, Beverly, Mass., USA) and qPCR was performed using specific primers for each examined marker: ABP (forward: [sequence] (SEQ ID NO: 1); reverse: [sequence] (SEQ ID NO:2); product size, 237 bp), INHIBIN B (forward: [sequence] (SEQ ID NO:3); reverse: [sequence] (SEQ ID NO:4); product size, 209 bp), FSH-R (forward: [sequence] […] (SEQ ID NO: 6); product size, 206 bp), Transferrin (forward: [sequence] (SEQ ID NO:7); reverse: [sequence] (SEQ ID NO:8); product size: 231 bp), Housekeeping gene GAPDH (forward: [sequence] (SEQ ID NO:9); reverse: [sequence] (SEQ ID NO:10); product size, 450 bp). qPCR reaction was performed following the 2× qPCRBIO SyGreen Blue Mix Hi-ROX (PCR Biosystems Ltd, Aztec House, 397-405 Archway Road, London, UK) protocol and was performed using the LightCycler 96 real-time PCR machine (Roche, Roche Diagnostics Corporation, Roche CustomBiotech, Indianapolis, Ind., USA). Program: preincubation 10 minutes at 95° C., 40 cycles of 15 seconds at 95° C., 15 seconds at 60° C. and 10 seconds at 72° C. Melting cycle: 10 seconds at 95° C., 60 seconds at 65° C., and 1 second at 97° C. PCR products were identified by the melting curve. The “threshold cycle” (Ct) value for each transcript was identified. The relative quantity of gene expression was analyzed by the 2° method. Results were expressed as the fold of increase related to the GAPDH of the same examined sample and relatively compared to control treatment group.

[1] = test system: spermatogonial cells isolated from CP-treated immature mice; test: In vitro culture in MCS of seminiferous tubule cells from CP-treated immature mice; marker-positive cells by immunofluorescence staining; type: cell-based; conditions: for ACROSIN (meiotic/postmeiotic marker), percentage of stained cells / BOULE (meiotic marker), percentage of stained cells / C-KIT (pre-meiotic marker), percentage of stained cells / CD9 (pre-meiotic marker), percentage of stained cells / CREM (meiotic marker), percentage of stained cells / GFR-a (pre-meiotic marker), percentage of stained cells / VASA (pre-meiotic marker), percentage of stained cells / a-6-INTG (pre-meiotic marker), percentage of stained cells: after 4-5 weeks culture in MCS, FSH 7.5 IU/ml, IL-1α 20 pg/ml or TNF-α 20 pg/ml from the beginning, testosterone 10^−7 M at the last week
[2] = test system: isolated seminiferous tubule cells; test: Isolated seminiferous tubule cells of 7-days-old mice cultured in methylcellulose culture system (MCS); marker-positive cells by immunofluorescence staining; type: cell-based
[3] = test system: isolated seminiferous tubule cells; test: Isolated seminiferous tubule cells of 7-days-old mice cultured in MCS; premeiotic and meiotic/postmeiotic marker RNA by qPCR; type: cell-based; conditions: GM-CSF 0.1 or 1 ng/ml for 4 weeks; testosterone 10^−7 M added after 2 weeks in control medium for additional 2 weeks; after 4 weeks of culture; compared to control cultured cells
[4] = 10-days post last CP-injection, compared to control, p<0.001
[5] = 10-days post the last CP-injection, compared to control, p<0.001
[6] = CP 100 mg/kg i.p. once a week for 3 weeks, day 10 post-treatment, compared to control, p<0.001
[7] = compared to cells cultured in control medium
[8] = GM-CSF 0.1 or 1 ng/ml for 4 weeks, testosterone 10^−7 M added after 2 weeks in control medium for additional 2 weeks, after 4 weeks of culture, compared to control cultured cells
[9] = factor from the beginning of the culture (IL-1α 10 pg/ml; IL-1β or IL-6 1, 10 or 100 pg/ml), after 4 weeks of culture, compared to control medium
[10] = IL-1α 10 pg/ml added only after 2 weeks of the culture for additional 2 weeks, compared to control medium

O=P1(N(CCCl)CCCl)NCCCO1 (centres unmarked) [CP, cyclophosphamide]
number of Sertoli cells (vimentin) (testes of immature mice; [4]): significantly reduced
number of peritubular cells (αSMA) (testes of immature mice; [4]): significantly reduced
number of cells stained positive to the meiotic/postmeiotic marker acrosin (testes of immature mice; [5]): significantly reduced
number of meiotic cells stained positive to BOULE (testes of immature mice; [5]): significantly reduced
number of meiotic cells stained positive to CREM (testes of immature mice; [5]): significantly reduced
number of premeiotic cells stained positive to CD9 (testes of immature mice; [5]): significantly reduced
number of premeiotic cells stained positive to VASA (testes of immature mice; [5]): significantly reduced
number of premeiotic cells stained positive to c-KIT (testes of immature mice; [5]): significantly reduced
number of premeiotic cells stained positive to α-6 INTEGRIN (testes of immature mice; [5]): significantly reduced
testicular weight (testes of immature mice; CP 100 mg/kg i.p. once a week for 3 weeks, all time points during 5 weeks after the last injection, compared to control mice, p<0.001): significantly decreased
seminiferous tubules histology (testes of immature mice; CP 100 mg/kg i.p. once a week for 3 weeks, day 10 post-treatment, compared to control): significantly impaired
testicular cell count (testes of immature mice; [6]): decreased
testicular weight (testes of immature mice; [6]): decreased
seminiferous tubules histology (testes of immature mice; CP 100 mg/kg i.p. once a week for 3 weeks, during 3 weeks after the last injection): impaired
time of most severe damage for the seminiferous tubules (testes of immature mice; CP 100 mg/kg i.p. once a week for 3 weeks, weeks post-treatment): 1-2 weeks
expression levels of androgen binding protein (ABP) (Sertoli cells): did not significantly affect
expression levels of transferrin (Sertoli cells; p<0.01): significantly increased
expression levels of FSH-receptor (FSH-R) (Sertoli cells; p<0.05): significantly increased
expression levels of inhibin (Sertoli cells; p<0.05): significantly increased

C[C@]12CC[C@H]3[C@@H](CCC4=CC(=O)CC[C@@]43C)[C@@H]1CC[C@@H]2O [testosterone, reference compound]
ACROSIN (meiotic/postmeiotic marker), percentage of stained cells [1]: 55.53%
BOULE (meiotic marker), percentage of stained cells [1]: 22.15%
C-KIT (pre-meiotic marker), percentage of stained cells [1]: 11.13%
CD9 (pre-meiotic marker), percentage of stained cells [1]: 42.63%
CREM (meiotic marker), percentage of stained cells [1]: 38.42%
GFR-a (pre-meiotic marker), percentage of stained cells [1]: 24.03%
VASA (pre-meiotic marker), percentage of stained cells [1]: 23.76%
a-6-INTG (pre-meiotic marker), percentage of stained cells [1]: 12.23%
percentage of the meiotic/postmeiotic ACROSIN positive cells [1, 7]: significantly increased
percentage of the other examined premeiotic and meiotic (or meiotic/postmeiotic) cells developed in MCS [1, 7]: without any significant effect
percentage of the premeiotic CD9 positive cells [1, 7]: significantly increased

GM-CSF
percentage of VASA positive cells [2, 8]: significantly increased
percentage of acrosin positive cells [2, 8]: did not significantly increase
percentages of BOULE positive cells [2, 8]: significantly increased
BOULE expression levels (qPCR) [3]: significantly increased
PLZF expression level (qPCR) [3]: significantly increased
VASA expression level (qPCR) [3]: significantly increased
acrosin expression levels (qPCR) [3]: did not significantly increase

IL-1β: interleukin 1 beta cytokine (PeproTech), 1, 10 or 100 pg/ml
percentages of BOULE positive cells [2, 9]: significantly increased
percentages of VASA positive cells [2, 9]: significantly increased
percentages of acrosin positive cells [2, 9]: significantly increased

IL-6: interleukin-6 cytokine (PeproTech), 1, 10 or 100 pg/ml
percentages of BOULE positive cells [2, 9]: significantly increased
percentages of VASA positive cells [2, 9]: significantly increased
percentages of acrosin positive cells [2, 9]: significantly increased

TNFα
ACROSIN (meiotic/postmeiotic marker), percentage of stained cells [1]: 36.4%
BOULE (meiotic marker), percentage of stained cells [1]: 21.1%
C-KIT (pre-meiotic marker), percentage of stained cells [1]: 29.05%
CD9 (pre-meiotic marker), percentage of stained cells [1]: 33.52%
CREM (meiotic marker), percentage of stained cells [1]: 36.1%
GFR-a (pre-meiotic marker), percentage of stained cells [1]: 25.3%
VASA (pre-meiotic marker), percentage of stained cells [1]: 31.67%
a-6-INTG (pre-meiotic marker), percentage of stained cells [1]: 25.76%
percentage of the other examined premeiotic and meiotic (or meiotic/postmeiotic) cells developed in MCS [1, 7]: without any significant effect
percentage of the premeiotic CD9 positive cells [1, 7]: significantly increased

B1: IL-1α: interleukin 1 alpha cytokine (BioLegend 20 pg/ml; PeproTech 10 pg/ml) (protein, UniProt P01583 113-271, looked up)
Interleukin-1 alpha: SAPFSFLSNVKYNFMRIIKYEFILNDALNQSIIRANDQYLTAAALHNLDEAVKFDMGAYKSSKDDAKITVILRISKTQLYVTAQDEDQPVLLKEMPEIPKTITGSETNLLFFWETHGTKNYFTSVAHPNLFIATKQDYWVCLAGGPPSITDFQILENQA
percentages of BOULE positive cells [2, 10]: increased the percentages of BOULE positive cells, but not significantly
percentages of VASA positive cells [2, 10]: increased the percentages of VASA positive cells, but not significantly
percentages of acrosin cells [2, 10]: increased the percentages of acrosin cells, but not significantly
percentages of BOULE positive cells [2, 9]: significantly increased
percentages of VASA positive cells [2, 9]: significantly increased
percentages of acrosin positive cells [2, 9]: significantly increased
ACROSIN (meiotic/postmeiotic marker), percentage of stained cells [1]: 34.27%
BOULE (meiotic marker), percentage of stained cells [1]: 27.16%
C-KIT (pre-meiotic marker), percentage of stained cells [1]: 16.5%
CD9 (pre-meiotic marker), percentage of stained cells [1]: 23.4%
CREM (meiotic marker), percentage of stained cells [1]: 30.45 + %
GFR-a (pre-meiotic marker), percentage of stained cells [1]: 22.77%
VASA (pre-meiotic marker), percentage of stained cells [1]: 20.8%
a-6-INTG (pre-meiotic marker), percentage of stained cells [1]: 17.5%
percentage of premeiotic, meiotic and meiotic/postmeiotic examined cells developed in MCS [1, 7]: did not show any significant effect
